According to the supplement of paper PMC10627819:

Assays:
Assay in all cases: fitness (endpoint OD595 vs no drug) (fraction); higher = more growth
S. aureus Newman = system: S. aureus Newman
Outline: (§1)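 Fitness is computed from the optical density at which cultures reach stationary phase, divided by the robust mean of no-drug control wells. Any value above 1 is set to 1. Cultures started at OD595 0.01 in 384-well plates with TSB, LB Lennox or CY at 37 °C, and OD595 was read every 30 min for 14 h against a first-reading background.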

S. aureus DSM 20231 = system: S. aureus DSM 20231
Outline: as §1

B. subtilis 168 = system: B. subtilis 168
Outline: as §1

[1] = first compound 0.375 µg/mL, partner 0.0075 µg/mL
[2] = first compound 0.375 µg/mL, partner 0.015 µg/mL
[3] = first compound 0.375 µg/mL, partner 0.03 µg/mL
[4] = first compound 0.75 µg/mL, partner 0.0075 µg/mL
[5] = first compound 0.75 µg/mL, partner 0.015 µg/mL
[6] = first compound 0.75 µg/mL, partner 0.03 µg/mL
[7] = first compound 1.5 µg/mL, partner 0.0075 µg/mL
[8] = first compound 1.5 µg/mL, partner 0.015 µg/mL
[9] = first compound 1.5 µg/mL, partner 0.03 µg/mL
[10] = first compound 0.375 µg/mL, partner 0.39 µg/mL
[11] = first compound 0.375 µg/mL, partner 0.78 µg/mL
[12] = first compound 0.375 µg/mL, partner 1.56 µg/mL
[13] = first compound 0.75 µg/mL, partner 0.39 µg/mL
[14] = first compound 0.75 µg/mL, partner 0.78 µg/mL
[15] = first compound 0.75 µg/mL, partner 1.56 µg/mL
[16] = first compound 1.5 µg/mL, partner 0.39 µg/mL
[17] = first compound 1.5 µg/mL, partner 0.78 µg/mL
[18] = first compound 1.5 µg/mL, partner 1.56 µg/mL
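Further: OD595 on entry to stationary phase over no-drug wells; at most 1.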

N[C@@H]1CONC1=O [Cycloserine D] + COc1c(N2C[C@@H]3CCCN[C@@H]3C2)c(F)cc2c(=O)c(C(=O)O)cn(C3CC3)c12 [Moxifloxacin]
fitness (S. aureus Newman; [1]): 0.761
fitness (S. aureus Newman; [2]): 0.599
fitness (S. aureus Newman; [3]): 0.119
fitness (S. aureus Newman; [4]): 0.753
fitness (S. aureus Newman; [5]): 0.552
fitness (S. aureus Newman; [6]): 0.0631
fitness (S. aureus Newman; [7]): 0.705
fitness (S. aureus Newman; [8]): 0.586
fitness (S. aureus Newman; [9]): 0.06
fitness (S. aureus DSM 20231; [1]): 0.827
fitness (S. aureus DSM 20231; [2]): 0.713
fitness (S. aureus DSM 20231; [3]): 0.575
fitness (S. aureus DSM 20231; first compound 0.375 µg/mL, partner 0.06 µg/mL, one replicate): 0.658
fitness (S. aureus DSM 20231; first compound 0.375 µg/mL, partner 0.12 µg/mL, one replicate): 0.483
fitness (S. aureus DSM 20231; [4]): 0.85
fitness (S. aureus DSM 20231; [5]): 0.712
fitness (S. aureus DSM 20231; [6]): 0.586
fitness (S. aureus DSM 20231; first compound 0.75 µg/mL, partner 0.06 µg/mL, one replicate): 0.656
fitness (S. aureus DSM 20231; first compound 0.75 µg/mL, partner 0.12 µg/mL, one replicate): 0.518
fitness (S. aureus DSM 20231; [7]): 0.844
fitness (S. aureus DSM 20231; [8]): 0.687
fitness (S. aureus DSM 20231; [9]): 0.564
fitness (S. aureus DSM 20231; first compound 1.5 µg/mL, partner 0.06 µg/mL, one replicate): 0.654
fitness (S. aureus DSM 20231; first compound 1.5 µg/mL, partner 0.12 µg/mL, one replicate): 0.483
fitness (B. subtilis 168; first compound 0.125 µg/mL, partner 0.0312 µg/mL): 0.0481
fitness (B. subtilis 168; first compound 0.125 µg/mL, partner 0.0625 µg/mL): 0.033
fitness (B. subtilis 168; first compound 0.125 µg/mL, partner 0.125 µg/mL): 0.0229
fitness (B. subtilis 168; first compound 0.125 µg/mL, partner 2 µg/mL): 0.0539
fitness (B. subtilis 168; first compound 0.125 µg/mL, partner 4 µg/mL): 0.0542
fitness (B. subtilis 168; first compound 0.125 µg/mL, partner 8 µg/mL): 0.04
fitness (B. subtilis 168; first compound 0.25 µg/mL, partner 0.0312 µg/mL): 0.0489
fitness (B. subtilis 168; first compound 0.25 µg/mL, partner 0.0625 µg/mL): 0.034
fitness (B. subtilis 168; first compound 0.25 µg/mL, partner 0.125 µg/mL): 0.0218
fitness (B. subtilis 168; first compound 0.25 µg/mL, partner 2 µg/mL): 0.0355
fitness (B. subtilis 168; first compound 0.25 µg/mL, partner 4 µg/mL): 0.0318
fitness (B. subtilis 168; first compound 0.25 µg/mL, partner 8 µg/mL): 0.0429
fitness (B. subtilis 168; first compound 0.5 µg/mL, partner 0.0312 µg/mL): 0.0432
fitness (B. subtilis 168; first compound 0.5 µg/mL, partner 0.0625 µg/mL): 0.028
fitness (B. subtilis 168; first compound 0.5 µg/mL, partner 0.125 µg/mL): 0.03
fitness (B. subtilis 168; first compound 0.5 µg/mL, partner 2 µg/mL): 0.0265
fitness (B. subtilis 168; first compound 0.5 µg/mL, partner 4 µg/mL): 0.0298
fitness (B. subtilis 168; first compound 0.5 µg/mL, partner 8 µg/mL): 0.0319

N[C@@H]1CONC1=O [Cycloserine D] + COc1ccc(C[C@H](N)C(=O)N[C@H]2[C@@H](O)[C@H](n3cnc4c(N(C)C)ncnc43)O[C@@H]2CO)cc1 [Puromycin]
fitness (S. aureus Newman; [10]): ≥ 1
fitness (S. aureus Newman; [11]): 0.999
fitness (S. aureus Newman; [12]): ≥ 1
fitness (S. aureus Newman; [13]): ≥ 1
fitness (S. aureus Newman; [14]): 0.977
fitness (S. aureus Newman; [15]): 0.998
fitness (S. aureus Newman; [16]): ≥ 1
fitness (S. aureus Newman; [17]): 0.989
fitness (S. aureus Newman; [18]): ≥ 1
fitness (S. aureus DSM 20231; [10]): ≥ 1
fitness (S. aureus DSM 20231; [11]): ≥ 1
fitness (S. aureus DSM 20231; [12]): 1
fitness (S. aureus DSM 20231; first compound 0.375 µg/mL, partner 3.12 µg/mL, one replicate): ≥ 1
fitness (S. aureus DSM 20231; first compound 0.375 µg/mL, partner 6.24 µg/mL, one replicate): 0.748
fitness (S. aureus DSM 20231; [13]): ≥ 1
fitness (S. aureus DSM 20231; [14]): ≥ 1
fitness (S. aureus DSM 20231; [15]): ≥ 1
fitness (S. aureus DSM 20231; first compound 0.75 µg/mL, partner 3.12 µg/mL, one replicate): ≥ 1
fitness (S. aureus DSM 20231; first compound 0.75 µg/mL, partner 6.24 µg/mL, one replicate): 0.718
fitness (S. aureus DSM 20231; [16]): ≥ 1
fitness (S. aureus DSM 20231; [17]): ≥ 1
fitness (S. aureus DSM 20231; [18]): ≥ 1
fitness (S. aureus DSM 20231; first compound 1.5 µg/mL, partner 3.12 µg/mL, one replicate): 0.977
fitness (S. aureus DSM 20231; first compound 1.5 µg/mL, partner 6.24 µg/mL, one replicate): 0.687
fitness (B. subtilis 168; first compound 0.125 µg/mL, partner 0.39 µg/mL): 0.958
fitness (B. subtilis 168; first compound 0.125 µg/mL, partner 0.78 µg/mL): 0.931
fitness (B. subtilis 168; first compound 0.125 µg/mL, partner 1.56 µg/mL): 0.959
fitness (B. subtilis 168; first compound 0.25 µg/mL, partner 0.39 µg/mL): 0.889
fitness (B. subtilis 168; first compound 0.25 µg/mL, partner 0.78 µg/mL): 0.894
fitness (B. subtilis 168; first compound 0.25 µg/mL, partner 1.56 µg/mL): 0.929
fitness (B. subtilis 168; first compound 0.5 µg/mL, partner 0.39 µg/mL): 0.955
fitness (B. subtilis 168; first compound 0.5 µg/mL, partner 0.78 µg/mL): 0.968
fitness (B. subtilis 168; first compound 0.5 µg/mL, partner 1.56 µg/mL): 0.915
